Results as given in article PMC5433425 (PeerJ, 2017).
Values joined by “and” are separate entries in the source; they are usually repeats but may differ in a detail not shown here. Identical values can stand only once. Like-named read-outs stand apart in the source and are kept apart here. Peptide text beside a SMILES is read from it. * marks the point of attachment. βNA = c1ccc2cc(N*)ccc2c1

Assays:
E. coli AG100A = assay: microbe, parasite or virus in culture; type: cell-based, Escherichia coli; conditions: Escherichia coli, AG100A
Protocol: The minimum inhibitory concentrations (MICs) were determined using the broth microdilution method according to the CLSI guidelines ([Clinical and Laboratory Standards Institute, 2014]). […] Two-fold serial dilutions of the compounds were made to achieve the following concentrations: 320 µM–40 µM. The MICs were determined as the lowest concentration at which no visible growth was observed after 18 h of incubation at 37 °C. The assays were performed in triplicate and the MIC value was given as result of at least two concordant values.

E. coli AG100tet = assay: EtBr efflux by real-time fluorometry; conditions: 80 µM
Protocol: Control tubes with only cells and cells with and without 0.4% glucose were included. The fluorescence was measured in a Rotor-Gene 3000 and the data was acquired every 30 s for 30 min at 37 °C. The efflux activity was quantified by comparing the fluorescence data obtained under conditions that promote efflux (presence of glucose and absence of efflux inhibitor) with the data from the control in which the bacteria are under conditions of no efflux (presence of an inhibitor and no energy source).

E. coli AG100 = assay: Membrane potential assay (BacLight, DiOC2(3)); conditions: 80 µM
[1] = system: E. coli AG100tet (AcrAB overexpressing); assay: MIC, broth microdilution; type: cell-based, Escherichia coli; conditions: Escherichia coli

## NC(N)=NCCC[C@H](NC(=O)[C@@H](N)Cc1ccccc1)C(=O)Nc1ccc2ccccc2c1 [PAβN] (H-Phe-Arg-βNA)
E. coli AG100A; read-out: MIC of OFX in presence of the efflux inhibitor
  MIC: 0.03 µg/mL
E. coli AG100A; read-out: MIC of OXA in presence of the efflux inhibitor
  MIC: 0.25 µg/mL
E. coli AG100A; read-out: MIC of TET in presence of the efflux inhibitor
  MIC: 0.03 µg/mL
E. coli AG100tet; cycle 1, + glucose
  Fluorescence raw data, Channel Cycling A.530/585hp: 2.731
E. coli AG100tet; cycle 1, without glucose
  Fluorescence raw data, Channel Cycling A.530/585hp: 3.207
E. coli AG100tet; cycle 2, + glucose
  Fluorescence raw data, Channel Cycling A.530/585hp: 2.53
E. coli AG100tet; cycle 2, without glucose
  Fluorescence raw data, Channel Cycling A.530/585hp: 3.035
E. coli AG100tet; cycle 3, + glucose
  Fluorescence raw data, Channel Cycling A.530/585hp: 2.342
E. coli AG100tet; cycle 3, without glucose
  Fluorescence raw data, Channel Cycling A.530/585hp: 2.872
E. coli AG100tet; cycle 4, without glucose
  Fluorescence raw data, Channel Cycling A.530/585hp: 2.787
E. coli AG100tet; cycle 5, without glucose
  Fluorescence raw data, Channel Cycling A.530/585hp: 2.697
E. coli AG100tet; cycle 6, without glucose
  Fluorescence raw data, Channel Cycling A.530/585hp: 2.616
E. coli AG100tet; cycle 7, without glucose
  Fluorescence raw data, Channel Cycling A.530/585hp: 2.625
E. coli AG100tet; cycle 8, without glucose
  Fluorescence raw data, Channel Cycling A.530/585hp: 2.608
E. coli AG100tet; cycle 9, + glucose
  Fluorescence raw data, Channel Cycling A.530/585hp: 1.745
E. coli AG100tet; cycle 9, without glucose
  Fluorescence raw data, Channel Cycling A.530/585hp: 2.567
E. coli AG100tet; cycle 10, + glucose
  Fluorescence raw data, Channel Cycling A.530/585hp: 1.7497
E. coli AG100tet; cycle 10, without glucose
  Fluorescence raw data, Channel Cycling A.530/585hp: 2.517
E. coli AG100tet; cycle 11, + glucose
  Fluorescence raw data, Channel Cycling A.530/585hp: 1.716
E. coli AG100tet; cycle 11, without glucose
  Fluorescence raw data, Channel Cycling A.530/585hp: 2.463
E. coli AG100tet; cycle 12, + glucose
  Fluorescence raw data, Channel Cycling A.530/585hp: 1.744
E. coli AG100tet; cycle 12, without glucose
  Fluorescence raw data, Channel Cycling A.530/585hp: 2.462
E. coli AG100tet; cycle 13, + glucose
  Fluorescence raw data, Channel Cycling A.530/585hp: 1.706
E. coli AG100tet; cycle 13, without glucose
  Fluorescence raw data, Channel Cycling A.530/585hp: 2.458
E. coli AG100tet; cycle 14, + glucose
  Fluorescence raw data, Channel Cycling A.530/585hp: 1.697
E. coli AG100tet; cycle 14, without glucose
  Fluorescence raw data, Channel Cycling A.530/585hp: 2.431
E. coli AG100tet; cycle 15, + glucose
  Fluorescence raw data, Channel Cycling A.530/585hp: 1.701
E. coli AG100tet; cycle 15, without glucose
  Fluorescence raw data, Channel Cycling A.530/585hp: 2.375
E. coli AG100tet; cycle 16, + glucose
  Fluorescence raw data, Channel Cycling A.530/585hp: 1.676
E. coli AG100tet; cycle 16, without glucose
  Fluorescence raw data, Channel Cycling A.530/585hp: 2.373
E. coli AG100tet; cycle 17, + glucose
  Fluorescence raw data, Channel Cycling A.530/585hp: 1.744
E. coli AG100tet; cycle 17, without glucose
  Fluorescence raw data, Channel Cycling A.530/585hp: 2.339
E. coli AG100tet; cycle 18, + glucose
  Fluorescence raw data, Channel Cycling A.530/585hp: 1.635
E. coli AG100tet; cycle 18, without glucose
  Fluorescence raw data, Channel Cycling A.530/585hp: 2.379
E. coli AG100tet; cycle 19, + glucose
  Fluorescence raw data, Channel Cycling A.530/585hp: 1.694
E. coli AG100tet; cycle 19, without glucose
  Fluorescence raw data, Channel Cycling A.530/585hp: 2.342
E. coli AG100tet; cycle 20, + glucose
  Fluorescence raw data, Channel Cycling A.530/585hp: 1.701
E. coli AG100tet; cycle 20, without glucose
  Fluorescence raw data, Channel Cycling A.530/585hp: 2.323
E. coli AG100tet; cycle 21, + glucose
  Fluorescence raw data, Channel Cycling A.530/585hp: 1.621
E. coli AG100tet; cycle 21, without glucose
  Fluorescence raw data, Channel Cycling A.530/585hp: 2.26
E. coli AG100tet; cycle 22, + glucose
  Fluorescence raw data, Channel Cycling A.530/585hp: 1.645
E. coli AG100tet; cycle 22, without glucose
  Fluorescence raw data, Channel Cycling A.530/585hp: 2.252
E. coli AG100tet; cycle 23, + glucose
  Fluorescence raw data, Channel Cycling A.530/585hp: 1.597
E. coli AG100tet; cycle 23, without glucose
  Fluorescence raw data, Channel Cycling A.530/585hp: 2.314
E. coli AG100tet; cycle 24, + glucose
  Fluorescence raw data, Channel Cycling A.530/585hp: 1.6798
E. coli AG100tet; cycle 24, without glucose
  Fluorescence raw data, Channel Cycling A.530/585hp: 2.2447
E. coli AG100tet; cycle 25, + glucose
  Fluorescence raw data, Channel Cycling A.530/585hp: 1.636
E. coli AG100tet; cycle 25, without glucose
  Fluorescence raw data, Channel Cycling A.530/585hp: 2.272
E. coli AG100tet; cycle 26, + glucose
  Fluorescence raw data, Channel Cycling A.530/585hp: 1.633
E. coli AG100tet; cycle 26, without glucose
  Fluorescence raw data, Channel Cycling A.530/585hp: 2.288
E. coli AG100tet; cycle 27, + glucose
  Fluorescence raw data, Channel Cycling A.530/585hp: 1.617
E. coli AG100tet; cycle 27, without glucose
  Fluorescence raw data, Channel Cycling A.530/585hp: 2.2961
E. coli AG100tet; cycle 28, + glucose
  Fluorescence raw data, Channel Cycling A.530/585hp: 1.668
E. coli AG100tet; cycle 28, without glucose
  Fluorescence raw data, Channel Cycling A.530/585hp: 2.2127
E. coli AG100tet; cycle 29, + glucose
  Fluorescence raw data, Channel Cycling A.530/585hp: 1.644
E. coli AG100tet; cycle 29, without glucose
  Fluorescence raw data, Channel Cycling A.530/585hp: 2.236
E. coli AG100tet; cycle 30, + glucose
  Fluorescence raw data, Channel Cycling A.530/585hp: 1.668
E. coli AG100tet; cycle 30, without glucose
  Fluorescence raw data, Channel Cycling A.530/585hp: 2.282
E. coli AG100tet; cycle 31, + glucose
  Fluorescence raw data, Channel Cycling A.530/585hp: 1.6751
E. coli AG100tet; cycle 31, without glucose
  Fluorescence raw data, Channel Cycling A.530/585hp: 2.164
E. coli AG100tet; cycle 32, + glucose
  Fluorescence raw data, Channel Cycling A.530/585hp: 1.6187
E. coli AG100tet; cycle 32, without glucose
  Fluorescence raw data, Channel Cycling A.530/585hp: 2.166
E. coli AG100tet; cycle 33, + glucose
  Fluorescence raw data, Channel Cycling A.530/585hp: 1.65
E. coli AG100tet; cycle 33, without glucose
  Fluorescence raw data, Channel Cycling A.530/585hp: 2.197
E. coli AG100tet; cycle 34, + glucose
  Fluorescence raw data, Channel Cycling A.530/585hp: 1.608
E. coli AG100tet; cycle 34, without glucose
  Fluorescence raw data, Channel Cycling A.530/585hp: 2.188
E. coli AG100tet; cycle 35, + glucose
  Fluorescence raw data, Channel Cycling A.530/585hp: 1.636
E. coli AG100tet; cycle 35, without glucose
  Fluorescence raw data, Channel Cycling A.530/585hp: 2.154
E. coli AG100tet; cycle 36, + glucose
  Fluorescence raw data, Channel Cycling A.530/585hp: 1.655
E. coli AG100tet; cycle 36, without glucose
  Fluorescence raw data, Channel Cycling A.530/585hp: 2.1525
E. coli AG100tet; cycle 37, + glucose
  Fluorescence raw data, Channel Cycling A.530/585hp: 1.639
E. coli AG100tet; cycle 37, without glucose
  Fluorescence raw data, Channel Cycling A.530/585hp: 2.17
E. coli AG100tet; cycle 38, + glucose
  Fluorescence raw data, Channel Cycling A.530/585hp: 1.617
E. coli AG100tet; cycle 38, without glucose
  Fluorescence raw data, Channel Cycling A.530/585hp: 2.15
E. coli AG100tet; cycle 39, + glucose
  Fluorescence raw data, Channel Cycling A.530/585hp: 1.593
E. coli AG100tet; cycle 39, without glucose
  Fluorescence raw data, Channel Cycling A.530/585hp: 2.185
E. coli AG100tet; cycle 40, + glucose
  Fluorescence raw data, Channel Cycling A.530/585hp: 1.564
E. coli AG100tet; cycle 40, without glucose
  Fluorescence raw data, Channel Cycling A.530/585hp: 2.132
E. coli AG100tet; cycle 41, + glucose
  Fluorescence raw data, Channel Cycling A.530/585hp: 1.567
E. coli AG100tet; cycle 41, without glucose
  Fluorescence raw data, Channel Cycling A.530/585hp: 2.08
E. coli AG100tet; cycle 42, + glucose
  Fluorescence raw data, Channel Cycling A.530/585hp: 1.587
E. coli AG100tet; cycle 42, without glucose
  Fluorescence raw data, Channel Cycling A.530/585hp: 2.131
E. coli AG100tet; cycle 43, + glucose
  Fluorescence raw data, Channel Cycling A.530/585hp: 1.59
E. coli AG100tet; cycle 43, without glucose
  Fluorescence raw data, Channel Cycling A.530/585hp: 2.079
E. coli AG100tet; cycle 44, + glucose
  Fluorescence raw data, Channel Cycling A.530/585hp: 1.59
E. coli AG100tet; cycle 44, without glucose
  Fluorescence raw data, Channel Cycling A.530/585hp: 2.093
E. coli AG100tet; cycle 45, without glucose
  Fluorescence raw data, Channel Cycling A.530/585hp: 2.121
E. coli AG100tet; cycle 46, without glucose
  Fluorescence raw data, Channel Cycling A.530/585hp: 2.065
E. coli AG100tet; cycle 47, without glucose
  Fluorescence raw data, Channel Cycling A.530/585hp: 2.081
E. coli AG100tet; cycle 48, without glucose
  Fluorescence raw data, Channel Cycling A.530/585hp: 2.1149
E. coli AG100tet; cycle 49, without glucose
  Fluorescence raw data, Channel Cycling A.530/585hp: 2.071
E. coli AG100tet; cycle 50, without glucose
  Fluorescence raw data, Channel Cycling A.530/585hp: 2.047
E. coli AG100tet; cycle 51, without glucose
  Fluorescence raw data, Channel Cycling A.530/585hp: 2.071
E. coli AG100tet; cycle 52, without glucose
  Fluorescence raw data, Channel Cycling A.530/585hp: 2.107
E. coli AG100tet; cycle 53, without glucose
  Fluorescence raw data, Channel Cycling A.530/585hp: 2.082
E. coli AG100tet; cycle 54, without glucose
  Fluorescence raw data, Channel Cycling A.530/585hp: 2.046
E. coli AG100tet; cycle 55, without glucose
  Fluorescence raw data, Channel Cycling A.530/585hp: 2.03
E. coli AG100tet; cycle 56, without glucose
  Fluorescence raw data, Channel Cycling A.530/585hp: 2.023
E. coli AG100tet; cycle 57, without glucose
  Fluorescence raw data, Channel Cycling A.530/585hp: 2.015
E. coli AG100tet; cycle 58, without glucose
  Fluorescence raw data, Channel Cycling A.530/585hp: 2.049
E. coli AG100tet; cycle 59, without glucose
  Fluorescence raw data, Channel Cycling A.530/585hp: 2.011
E. coli AG100tet; cycle 60, without glucose
  Fluorescence raw data, Channel Cycling A.530/585hp: 2.05
E. coli AG100tet; cycle 61, without glucose
  Fluorescence raw data, Channel Cycling A.530/585hp: 1.991
E. coli AG100
  membrane depolarization: 14%
[1]
  MIC: > 200 µg/mL and > 385 µM
